Test results: PubChem BioAssay (NCI)
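Method: 48-hour compound exposure of cells in 96-well plates, five concentrations, linear interpolation of endpoints. GI50: concentration for 50% inhibition of growth. The concentration for full growth arrest is given as TGI.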

Experiments:
Assay in all cases: NCI tumour cell line growth inhibition, 48 h
COLO 205 colon = system: COLO 205 colon
DU-145 prostate = system: DU-145 prostate
MOLT-4 leukemia = system: MOLT-4 leukemia
NCI-H226 lung = system: NCI-H226 lung
PC-3 prostate = system: PC-3 prostate
SK-MEL-2 melanoma = system: SK-MEL-2 melanoma
SK-MEL-5 melanoma = system: SK-MEL-5 melanoma
SN12C renal = system: SN12C renal
A498 renal = system: A498 renal
MALME-3M melanoma = system: MALME-3M melanoma

| Compound | TGI (COLO 205 colon) | TGI (DU-145 prostate) | TGI (MOLT-4 leukemia) | TGI (NCI-H226 lung) | TGI (PC-3 prostate) | TGI (SK-MEL-2 melanoma) | TGI (SK-MEL-5 melanoma) | TGI (SN12C renal) | GI50 (A498 renal) | TGI (A498 renal) | GI50 (COLO 205 colon) | GI50 (MALME-3M melanoma) | TGI (MALME-3M melanoma) | GI50 (MOLT-4 leukemia) | GI50 (NCI-H226 lung) | GI50 (SK-MEL-2 melanoma) | GI50 (SK-MEL-5 melanoma) | GI50 (SN12C renal) | GI50 (DU-145 prostate) | GI50 (PC-3 prostate) |
| --- | --- | --- | --- | --- | --- | --- | --- | --- | --- | --- | --- | --- | --- | --- | --- | --- | --- | --- | --- | --- |
| COc1ccc(C(=O)C(CC2C(=O)CC(C)(C)C(C(=O)C(=O)Nc3c(C)cccc3C)C2=O)c2ccc(OC)cc2)cc1 (stereo not given) | > 100 µM | > 100 µM | > 100 µM | > 100 µM | > 100 µM | > 100 µM | > 100 µM | > 100 µM | – | – | – | – | – | – | – | – | – | – | – | – |
| CCC[CH2][Ge]([CH2]CCC)([CH2]CCC)[O]C(=O)C(OC(C)=O)c1ccccc1 (stereo not given) | 20.9 µM | – | > 100 µM | 19.7 µM | – | 19.5 µM | 11.6 µM | 24.9 µM | 11.4 µM | 24.3 µM | 6.37 µM | 1.16 µM | 19.4 µM | 0.153 µM | 0.351 µM | 3.17 µM | 0.774 µM | 7.7 µM | – | – |
| Cc1cccc2c1ccc1c3occ(C)c3c(=O)oc21 | > 100 µM | > 100 µM | > 100 µM | > 100 µM | > 100 µM | > 100 µM | > 100 µM | > 100 µM | – | – | > 100 µM | > 100 µM | > 100 µM | 51.5 µM | > 100 µM | > 100 µM | > 100 µM | > 100 µM | > 100 µM | > 100 µM |
| CC1OC(n2cc(I)c(=O)[nH]c2=O)C=CC1=O (stereo not given) | 30.7 µM | – | 33.8 µM | 32.3 µM | – | 32.4 µM | 29.5 µM | 33.3 µM | – | 29.6 µM | – | – | 28.5 µM | – | – | – | – | – | – | – |
| N#CC(C#N)=Cc1ccc(Oc2ccccc2)cc1 | > 100 µM | – | 98.4 µM | > 72.8 µM | – | > 55.7 µM | 64.7 µM | 20.6 µM | – | > 100 µM | – | – | 45.3 µM | – | – | – | – | – | – | – |
| O=[N+]([O-])c1cc([N+](=O)[O-])c(C(Cl)C(Cl)c2ccccc2)cc1C(Cl)C(Cl)c1ccccc1 (stereo not given) | 3.18 µM | – | > 23.3 µM | 5.18 µM | – | 3.86 µM | 3.29 µM | 3.49 µM | – | 3.33 µM | – | – | 3.31 µM | – | – | – | – | – | – | – |
| COC(=O)C(C(=O)C(=O)Nc1ccc([N+](=O)[O-])cc1)c1nc2cc(C)c(C)cc2[nH]c1=O (stereo not given) | > 100 µM | – | > 100 µM | > 100 µM | – | – | > 100 µM | > 100 µM | – | > 100 µM | – | – | > 100 µM | – | – | – | – | – | – | – |
| COC(=O)C1=C(C)N(NC(=O)c2cccc(Cl)c2)C(C)(O)C12CCOC2=O (stereo not given) | – | – | > 100 µM | > 100 µM | – | > 100 µM | > 100 µM | > 100 µM | – | > 100 µM | – | – | > 100 µM | – | – | – | – | – | – | – |
| CCOc1ccc(N=Nc2c(-c3ccccc3)nn(C(=O)CC(=O)Nc3cccc(C)c3)c2-c2ccccc2)cc1 | > 100 µM | – | > 100 µM | > 100 µM | – | > 100 µM | > 100 µM | > 100 µM | – | – | – | – | > 100 µM | – | – | – | – | – | – | – |
| COc1cc(CCNc2nc3cc(N)cc(N)c3nc2-c2ccccc2)cc(OC)c1 | 3.56 µM | 17.8 µM | 2.67 µM | 4.87 µM | – | 3.92 µM | 3.36 µM | 3.12 µM | 3.95 µM | 14.3 µM | 1.76 µM | 1.18 µM | 2.53 µM | 0.941 µM | 2.16 µM | 1.92 µM | 1.79 µM | 1.67 µM | 5.48 µM | – |
| C/C=C/C=C\C(=O)C1c2cccc(O)c2C(=O)c2c(O)cc(C)cc21 (stereo not given) | 2.99 µM | – | 8.19 µM | 2.57 µM | – | 2.2 µM | 2.69 µM | 5.74 µM | – | 7.76 µM | – | – | 3.12 µM | – | – | – | – | – | – | – |
| C[CH2][Sn]([Cl])([CH2]C)[CH2]C | 3.8 µM | – | 2.96 µM | 5.36 µM | – | 4.48 µM | 2.26 µM | 3.47 µM | – | – | 1.48 µM | 0.572 µM | 3.77 µM | 0.369 µM | 2.48 µM | 0.606 µM | 0.761 µM | 0.841 µM | – | – |
| Cc1cn2c(/C=N/N=C(N)N)c(-c3cc(Cl)sc3Cl)nc2s1 | – | – | 2.06 µM | – | 1.48 µM | > 50 µM | 1.74 µM | – | – | – | – | – | – | 1.17 µM | – | 1.98 µM | 0.905 µM | – | – | 0.8 µM |
| C=CCCC(O)c1ccc(CCCCCCCCCCC)o1 (stereo not given) | 35.3 µM | 31.1 µM | > 100 µM | 33.1 µM | 36.6 µM | 37.1 µM | 31.5 µM | 29 µM | – | – | 17.9 µM | 15.6 µM | 33.8 µM | 29.9 µM | 17.7 µM | 17.6 µM | 17 µM | 15.6 µM | 16.4 µM | 18.8 µM |
| CNC(=O)OCc1cc2ccncc2c2c1[nH]c1ccccc12 | > 100 µM | – | > 85.3 µM | > 100 µM | – | > 100 µM | > 100 µM | > 100 µM | – | – | – | – | > 100 µM | – | – | – | – | – | – | – |
| CCOC(=O)NN(C(=O)OCC)C(C(=O)c1ccc(Cl)cc1)=C1NCCN1 | > 100 µM | – | > 100 µM | > 100 µM | – | > 100 µM | > 100 µM | > 100 µM | – | > 100 µM | – | – | > 100 µM | – | – | – | – | – | – | – |
| COc1cc(C2C(C(=O)OCc3ccccc3)=C(C)NC(C)=C2C(=O)OCc2ccccc2)cc(OC)c1OC | – | – | > 100 µM | > 100 µM | > 100 µM | – | – | – | 1.75 µM | > 100 µM | – | – | – | 1.31 µM | 2.41 µM | – | – | – | – | 1.48 µM |
| CCc1cccc(CC)c1NC(=O)c1ccn2c1CCc1cnc(Nc3ccc(N4CCN(C)CC4)cc3OC)nc1-2 | 2.36 µM | 15.8 µM | – | 45.2 µM | 16.2 µM | – | 3.02 µM | 13.9 µM | 10.9 µM | 23.5 µM | 0.0231 µM | 1.87 µM | 3.8 µM | – | 14.7 µM | – | 1.61 µM | 2.13 µM | 2.6 µM | 2.5 µM |
| CC(C)N(C(=O)C12C3C4C5C3C1(C#N)C5C42)C(C)C (stereo not given) | > 100 µM | – | > 100 µM | > 100 µM | – | > 100 µM | > 100 µM | > 100 µM | – | > 100 µM | – | – | > 100 µM | – | – | – | – | – | – | – |
